According to ChEMBL document CHEMBL1201862, “PubChem BioAssay data set” (2004):
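Where inhibition never reached the appropriate level, the endpoint shown equals the highest concentration tested. Otherwise, values were interpolated linearly from a five-concentration, 48-hour dose response in 96-well plates. Here, GI50 denotes the concentration required for 50% inhibition of growth.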 The source made the active and inactive calls. No stated cut-off is given here; in the data, active = GI50 up to about 1.1 µM and inactive = higher.

Tests used:
Assay in all cases: inhibition of tumour cell growth, NCI panel, 48 h
[1] = system: SNB-75
[2] = system: OVCAR-3
[3] = system: SK-OV-3
[4] = system: OVCAR-8
[5] = system: HT-29
[6] = system: MCF7
[7] = system: OVCAR-4
[8] = system: SW-620
[9] = system: U-251
[10] = system: RPMI-8226
[11] = system: DU-145
[12] = system: MOLT-4
[13] = system: SK-MEL-2
[14] = system: LOX IMVI
[15] = system: M14
[16] = system: ACHN
[17] = system: UACC-62
[18] = system: NCI-H522
[19] = system: SN12C
[20] = system: HOP-92

Measured: GI50

Cc1cc2nc3c(C#N)c4c(c(Nc5ccc(F)cc5)n3c2cc1C)CCC4
inactive: [1] > 100 µM | [2] > 100 µM | [3] > 100 µM | [4] > 100 µM | [5] > 100 µM | [6] > 100 µM | [7] > 100 µM | [8] > 100 µM | [9] > 100 µM | [10] > 100 µM | [11] > 100 µM | [12] > 100 µM | [13] > 100 µM | [14] > 100 µM | [15] > 100 µM | [16] > 100 µM | [17] > 100 µM | [18] 95.5 µM | [19] > 100 µM

COc1cc2nc(-c3cccs3)nc(N3C(c4ccc(O)cc4)=NNC(=O)c4ccccc43)c2cc1OC
inactive: [1] 24 µM | [3] 38 µM | [4] 36.1 µM | [5] 23.1 µM | [6] 36.7 µM | [7] 28.8 µM | [8] 30.4 µM | [9] 27.8 µM | [10] 15 µM | [11] 4.54 µM | [13] 26.9 µM | [14] 22.3 µM | [15] 29.5 µM | [16] 23.7 µM | [17] 20.5 µM | [18] 86.9 µM | [19] 24.2 µM

Nn1c(=O)[nH]c2ncn(Cc3ccccc3)c2c1=O
inactive: [1] > 100 µM | [2] > 100 µM | [3] > 100 µM | [4] > 100 µM | [5] > 100 µM | [6] > 100 µM | [7] > 100 µM | [8] > 100 µM | [9] > 100 µM | [11] > 100 µM | [12] > 100 µM | [13] > 100 µM | [15] > 100 µM | [16] > 100 µM | [17] > 100 µM | [18] > 100 µM | [20] > 100 µM | [19] > 100 µM

N=C(N)Nc1ccc(CC(N)C(=O)NCC(=O)C(CC(=O)O)c2ncc(NC(=O)C(F)(F)F)o2)cc1 (stereo not given)
inactive: [1] > 25 µM | [2] > 25 µM | [3] > 25 µM | [4] > 25 µM | [5] > 25 µM | [6] 18.4 µM | [7] > 25 µM | [8] > 25 µM | [9] > 25 µM | [10] > 25 µM | [11] > 25 µM | [13] > 25 µM | [14] > 25 µM | [15] > 25 µM | [16] > 25 µM | [17] > 25 µM | [18] > 25 µM | [19] 9.27 µM

CCOC(=O)c1cc(=O)oc2c1N(C)c1ncccc1N2
inactive: [1] > 100 µM | [2] > 100 µM | [3] > 100 µM | [4] > 100 µM | [6] > 100 µM | [7] > 100 µM | [8] > 100 µM | [9] > 100 µM | [10] > 100 µM | [11] > 100 µM | [12] > 100 µM | [13] > 100 µM | [14] > 100 µM | [15] > 100 µM | [16] 86.9 µM | [17] > 100 µM | [19] > 100 µM

[O-][S+](Nc1ccccc1)c1cccc(Cl)c1 (stereo not given)
inactive: [1] 76.6 µM | [2] > 100 µM | [4] 77.1 µM | [5] > 100 µM | [6] > 100 µM | [8] > 100 µM | [9] 53.2 µM | [10] 43.5 µM | [11] 75 µM | [12] 34.7 µM | [14] 60.5 µM | [15] > 100 µM | [16] 25.5 µM | [18] 57.3 µM | [19] > 100 µM

CC1CNC(NS(=O)(=O)c2cc(C(=O)Nc3ccc(Cl)cc3)c(Cl)cc2S)=NN1 (stereo not given)
inactive: [2] 28.2 µM | [3] 59.4 µM | [4] 25.4 µM | [5] 36.3 µM | [6] 45 µM | [7] 28.6 µM | [8] 34.1 µM | [9] 37.2 µM | [10] 28.9 µM | [11] 30.2 µM | [12] 52.8 µM | [13] 28.9 µM | [14] 27.4 µM | [15] 21.7 µM | [16] 40 µM | [17] 29.2 µM | [18] 28.2 µM | [19] 38.8 µM

Nc1nc(N)nc(-c2cnccn2)n1
inactive: [1] > 100 µM | [2] > 100 µM | [3] > 100 µM | [4] > 100 µM | [6] > 100 µM | [8] > 100 µM | [9] > 100 µM | [11] > 100 µM | [12] > 100 µM | [13] > 100 µM | [14] > 100 µM | [15] > 100 µM | [16] > 100 µM | [17] > 100 µM | [18] > 100 µM | [20] > 100 µM | [19] > 100 µM

O=C(NC1(C(=O)NNc2nnc(-c3ccccc3)c(-c3ccccc3)n2)C(c2ccccc2)C(c2ccccc2)=NN1c1ccccc1)c1ccccc1 (stereo not given)
inactive: [1] 55.8 µM | [2] > 100 µM | [3] > 100 µM | [4] > 100 µM | [5] > 100 µM | [7] > 100 µM | [8] > 100 µM | [9] > 100 µM | [11] > 100 µM | [12] > 100 µM | [13] > 100 µM | [15] > 100 µM | [16] > 100 µM | [17] > 100 µM | [18] > 100 µM | [20] 73.1 µM

O=C1CCCC2=C1C(c1ccc3c(c1)OCO3)Nc1ccc3ccccc3c12 (stereo not given)
inactive: [1] > 100 µM | [2] > 100 µM | [3] > 100 µM | [4] 87.5 µM | [5] > 100 µM | [6] > 100 µM | [8] > 100 µM | [9] > 100 µM | [10] > 100 µM | [11] > 100 µM | [13] > 100 µM | [15] > 100 µM | [16] 16 µM | [17] > 100 µM | [18] > 100 µM | [19] > 100 µM

Clc1ccc(-c2nc3ccc4ccccc4c3c3c2CCCC3)cc1
inactive: [1] > 100 µM | [2] > 100 µM | [3] > 100 µM | [4] > 100 µM | [5] 44.6 µM | [6] > 100 µM | [8] > 100 µM | [9] 94.4 µM | [10] > 100 µM | [11] > 100 µM | [12] > 100 µM | [13] > 100 µM | [15] > 100 µM | [17] > 100 µM | [18] > 100 µM

O=C1c2scc(-c3ccccc3)c2-n2cccc21
inactive: [1] 3.46 µM | [2] 16.3 µM | [3] 19.3 µM | [4] 13.5 µM | [5] 10.9 µM | [6] 17.3 µM | [7] 75.9 µM | [8] 16.3 µM | [9] 14.1 µM | [10] 5 µM | [11] 26.3 µM | [12] 13.4 µM | [13] 12.2 µM | [14] 14.4 µM | [15] 18 µM | [16] > 100 µM | [17] 17.9 µM | [18] 11.4 µM | [19] 29.8 µM
